# Article PMC12893914 (Nature, 2025)
# Experiments:
# MOR [1] = target: T1, MOR (Mus musculus, UniProt P42866); format: biochemical; conditions: mouse spinal cord membranes
# MOR [2] = target: T1, MOR; format: biochemical; conditions: mouse spinal cord membranes; 100 nM DAMGO pulse loading
# T1 sequence (P42866 whole entry): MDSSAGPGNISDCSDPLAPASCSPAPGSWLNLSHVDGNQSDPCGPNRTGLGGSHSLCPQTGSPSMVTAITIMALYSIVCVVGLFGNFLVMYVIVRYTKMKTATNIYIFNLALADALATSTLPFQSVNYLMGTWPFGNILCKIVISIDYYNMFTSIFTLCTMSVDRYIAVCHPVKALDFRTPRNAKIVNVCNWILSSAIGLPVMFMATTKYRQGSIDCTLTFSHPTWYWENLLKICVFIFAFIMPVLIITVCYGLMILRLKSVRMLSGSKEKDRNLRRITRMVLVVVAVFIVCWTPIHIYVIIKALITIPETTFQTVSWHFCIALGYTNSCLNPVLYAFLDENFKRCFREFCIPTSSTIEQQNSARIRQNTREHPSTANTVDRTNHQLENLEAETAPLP
compound,measurement,setting,value
"C[C@@H](NC(=O)[C@@H](N)Cc1ccc(O)cc1)C(=O)NCC(=O)N(C)[C@@H](Cc1ccccc1)C(=O)NCCO [DAMGO, [D-Ala2, N-MePhe4, Gly-ol]-enkephalin]",efficacy class in ^35S-GTPγS binding,MOR [1],full agonists
same,stimulation of GTPγS binding over baseline,MOR [1]; 10 µM DAMGO,40%
same,stimulation of ^35S-GTPγS binding over baseline,MOR [1]; 10 µM DAMGO,1.4 ± 0.01 fold
same,efficacy in ^35S-GTPγS release,MOR [2],does not reach this plateau
